ChEMBL document CHEMBL3885881, “DrugMatrix”

Species on record: Rattus norvegicus
Assay: DrugMatrix - Regimen: Daily Repeat
Type: toxicity, organism-based, Sprague-Dawley
Set-up: regimen Daily Repeat, gender Male, age 6-8 weeks
Conditions: in vivo, iv, vehicle 100 % SALINE; for ABSOLUTE BASOPHIL / ABSOLUTE EOSINOPHIL / ABSOLUTE LYMPHOCYTE / ABSOLUTE MONOCYTE / ABSOLUTE SEGMENTED NEUTROPHIL / BASOPHIL / EOSINOPHIL / ERYTHROCYTE COUNT / HEMATOCRIT / HEMOGLOBIN / LEUKOCYTE COUNT / LYMPHOCYTE / MEAN CORPUSCULAR HEMOGLOBIN / MEAN CORPUSCULAR HEMOGLOBIN CONCENTRATION / MEAN CORPUSCULAR VOLUME / MONOCYTE / NEUTROPHIL / NUCLEATED RED BLOOD CELLS / PLATELET COUNT: tissue Blood; for ALANINE AMINOTRANSFERASE / ALBUMIN / ALKALINE PHOSPHATASE / ASPARTATE AMINOTRANSFERASE / BLOOD UREA NITROGEN / CARBON DIOXIDE / CHLORIDE / CHOLESTEROL / CREATINE PHOSPHOKINASE / CREATININE / GLUCOSE / LACTATE DEHYDROGENASE / LIPASE / PHOSPHORUS / POTASSIUM / SODIUM / TOTAL BILIRUBIN / TOTAL PROTEIN / URIC ACID: tissue Plasma
[1] = 0.5 mg/kg, 120 h, dose level Low, time 5 day
[2] = […], 72 h, dose 1.7 mg/Kg, dose level High, time 3 day
[3] = […], 120 h, dose 1.7 mg/Kg, dose level High, time 5 day

## CO[C@@]12[C@H](COC(N)=O)C3=C(C(=O)C(C)=C(N)C3=O)N1C[C@@H]1N[C@@H]12 [MITOMYCIN]
[1]
  ABSOLUTE BASOPHIL: 0 CELLS/uL
  ABSOLUTE EOSINOPHIL: 31 CELLS/uL
  ABSOLUTE LYMPHOCYTE: 7760.33 CELLS/uL
  ABSOLUTE MONOCYTE: 22.67 CELLS/uL
  ABSOLUTE SEGMENTED NEUTROPHIL: 286 CELLS/uL
  BASOPHIL: 0%
  EOSINOPHIL: 0.33%
  ERYTHROCYTE COUNT: 6.12 x10E6/uL
  HEMATOCRIT: 36.83%
  HEMOGLOBIN: 14.33 G/DL
  LEUKOCYTE COUNT: 8.1 x10E3/uL
  LYMPHOCYTE: 96%
  MEAN CORPUSCULAR HEMOGLOBIN: 23.4 pg
  MEAN CORPUSCULAR HEMOGLOBIN CONCENTRATION: 38.9 G/DL
  MEAN CORPUSCULAR VOLUME: 60.2 fL
  MONOCYTE: 0.33%
  NEUTROPHIL: 3.33%
  NUCLEATED RED BLOOD CELLS: 0.67 /100WBC
  PLATELET COUNT: 1302.33 x10E3/uL
  ALANINE AMINOTRANSFERASE: 47.33 u/L
  ALBUMIN: 4.03 G/DL
  ALKALINE PHOSPHATASE: 285.67 u/L
  ASPARTATE AMINOTRANSFERASE: 78 u/L
  BLOOD UREA NITROGEN: 16.33 mg/dL
  CARBON DIOXIDE: 29.33 mmol/L
  CHLORIDE: 101.67 MEQ/L
  CHOLESTEROL: 67.33 mg/dL
  CREATINE PHOSPHOKINASE: 203 u/L
  CREATININE: 0.34 mg/dL
  GLUCOSE: 154 mg/dL
  LACTATE DEHYDROGENASE: 120 u/L
  LIPASE: 11 u/L
  PHOSPHORUS: 10.5 mg/dL
  POTASSIUM: 4.84 MEQ/L
  SODIUM: 145.67 MEQ/L
  TOTAL BILIRUBIN: 0.13 mg/dL
  TOTAL PROTEIN: 5.83 G/DL
  URIC ACID: 0.57 mg/dL
[2]
  ABSOLUTE BASOPHIL: 0 CELLS/uL
  ABSOLUTE EOSINOPHIL: 31.67 CELLS/uL
  ABSOLUTE LYMPHOCYTE: 7497.33 CELLS/uL
  ABSOLUTE MONOCYTE: 0 CELLS/uL
  ABSOLUTE SEGMENTED NEUTROPHIL: 1104.33 CELLS/uL
  BASOPHIL: 0%
  EOSINOPHIL: 0.33%
  ERYTHROCYTE COUNT: 5.47 x10E6/uL
  HEMATOCRIT: 33.9%
  HEMOGLOBIN: 13.43 G/DL
  LEUKOCYTE COUNT: 8.63 x10E3/uL
  LYMPHOCYTE: 86.67%
  MEAN CORPUSCULAR HEMOGLOBIN: 24.6 pg
  MEAN CORPUSCULAR HEMOGLOBIN CONCENTRATION: 39.63 G/DL
  MEAN CORPUSCULAR VOLUME: 62.07 fL
  MONOCYTE: 0%
  NEUTROPHIL: 13%
  NUCLEATED RED BLOOD CELLS: 0 /100WBC
  PLATELET COUNT: 1626.67 x10E3/uL
  ALANINE AMINOTRANSFERASE: 35.67 u/L
  ALBUMIN: 4.03 G/DL
  ALKALINE PHOSPHATASE: 211 u/L
  ASPARTATE AMINOTRANSFERASE: 72.33 u/L
  BLOOD UREA NITROGEN: 13.33 mg/dL
  CARBON DIOXIDE: 29.33 mmol/L
  CHLORIDE: 99.33 MEQ/L
  CHOLESTEROL: 71.33 mg/dL
  CREATINE PHOSPHOKINASE: 245.67 u/L
  CREATININE: 0.15 mg/dL
  GLUCOSE: 145.33 mg/dL
  LACTATE DEHYDROGENASE: 173 u/L
  LIPASE: 8 u/L
  PHOSPHORUS: 11.53 mg/dL
  POTASSIUM: 5.56 MEQ/L
  SODIUM: 141.2 MEQ/L
  TOTAL BILIRUBIN: 0.1 mg/dL
  TOTAL PROTEIN: 5.6 G/DL
  URIC ACID: 1.6 mg/dL
[3]
  ABSOLUTE BASOPHIL: 0 CELLS/uL
  ABSOLUTE EOSINOPHIL: 0 CELLS/uL
  ABSOLUTE LYMPHOCYTE: 2370 CELLS/uL
  ABSOLUTE MONOCYTE: 67 CELLS/uL
  ABSOLUTE SEGMENTED NEUTROPHIL: 663 CELLS/uL
  BASOPHIL: 0%
  EOSINOPHIL: 0%
  ERYTHROCYTE COUNT: 6.15 x10E6/uL
  HEMATOCRIT: 38.97%
  HEMOGLOBIN: 14.9 G/DL
  LEUKOCYTE COUNT: 3.1 x10E3/uL
  LYMPHOCYTE: 78.33%
  MEAN CORPUSCULAR HEMOGLOBIN: 24.23 pg
  MEAN CORPUSCULAR HEMOGLOBIN CONCENTRATION: 38.23 G/DL
  MEAN CORPUSCULAR VOLUME: 63.33 fL
  MONOCYTE: 2%
  NEUTROPHIL: 19.67%
  NUCLEATED RED BLOOD CELLS: 0 /100WBC
  PLATELET COUNT: 1554 x10E3/uL
  ALANINE AMINOTRANSFERASE: 21.33 u/L
  ALBUMIN: 3.37 G/DL
  ALKALINE PHOSPHATASE: 94.67 u/L
  ASPARTATE AMINOTRANSFERASE: 57 u/L
  BLOOD UREA NITROGEN: 15 mg/dL
  CARBON DIOXIDE: 30.67 mmol/L
  CHLORIDE: 100.33 MEQ/L
  CHOLESTEROL: 84.67 mg/dL
  CREATINE PHOSPHOKINASE: 265.67 u/L
  CREATININE: 0.26 mg/dL
  GLUCOSE: 154 mg/dL
  LACTATE DEHYDROGENASE: 136.67 u/L
  LIPASE: 10.67 u/L
  PHOSPHORUS: 8.73 mg/dL
  POTASSIUM: 4.86 MEQ/L
  SODIUM: 144.3 MEQ/L
  TOTAL BILIRUBIN: 0.1 mg/dL
  TOTAL PROTEIN: 5.13 G/DL
  URIC ACID: 0.57 mg/dL
